The target in the experiment is Mitogen-activated protein kinase kinase kinase 8 (Homo sapiens, UniProt P41279). In words: COT HTRF Assay. The note with it: pH 7.5; 22 °C. How it is done: The COT direct HTRF assay was carried out using biotin-MEK1 as a substrate. The reaction was carried out in black 96 half-well plates. At designated time points, EDTA was added to quench the reaction. Detection reagents were then added to each well to make anti-phospho-MEK1-Eu antibody and SAXL. The plates were incubated, and then read using the RUBYstar HTRF reader.
Sequence of Mitogen-activated protein kinase kinase kinase 8 (P41279 whole entry): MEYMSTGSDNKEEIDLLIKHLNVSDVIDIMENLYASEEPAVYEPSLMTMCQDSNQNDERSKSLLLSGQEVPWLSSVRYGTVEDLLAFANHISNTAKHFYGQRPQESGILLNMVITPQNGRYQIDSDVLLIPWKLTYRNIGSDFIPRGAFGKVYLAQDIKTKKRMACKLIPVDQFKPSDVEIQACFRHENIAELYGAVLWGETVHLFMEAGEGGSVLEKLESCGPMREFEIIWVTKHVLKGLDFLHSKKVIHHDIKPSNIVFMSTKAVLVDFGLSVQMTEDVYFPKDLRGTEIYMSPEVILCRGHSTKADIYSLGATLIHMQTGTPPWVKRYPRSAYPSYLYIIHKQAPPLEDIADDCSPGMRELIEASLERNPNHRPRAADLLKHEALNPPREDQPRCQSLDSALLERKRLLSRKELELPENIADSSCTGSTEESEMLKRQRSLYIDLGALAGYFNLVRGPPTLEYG
Background: In TR-FRET formats the signal depends on donor and acceptor labels being close together.

pIC50: −log10 of the molar value.

One may read the pIC50 as −log10 of the IC50, conventionally taken in molar units. A low value points to a large IC50. `O=C(O)c1cc2c(Oc3ccc(I)cc3)cncc2s1` had a pIC50 of 6.00.

The values above are taken from BindingDB's records for doi:10.1016/j.bmcl.2009.01.088 (Abbott Laboratories, 2009).
